Article PMC4979516, “Quinazoline-based tricyclic compounds that regulate programmed cell death, induce neuronal differentiation, and are curative in animal models for excitotoxicity and hereditary brain disease” (Cell Death Discovery, 2015)
Values joined by “and” are separate entries in the source; they are usually repeats but may differ in a detail not shown here. Equal entries are not always repeated. “Also recorded” adds a separate entry of the source.

Tests used:
[1] = system: NeuN expression in PC12 cells strain #3; assay: Western blot of NeuN in PC12 strain #3; format: cell-based, rat; settings: PC12 strain #3, versus vehicle control
Description: The relative protein levels of TSPO and other proteins related to neurodifferentiation (including β-actin, NeuN, tubulin-3β), were assayed by immunoblotting with the aid electrophoresis through 12% SDS-polyacrylamide gel, according to previously described methods.[71] A priori, general protein levels were measured by the method of Bradford using BSA as a standard.[75] After electrophoresis, the gels were subjected to electrophoretic transfer to nitrocellulose membranes. Then, the membranes were blocked for 1 h in 5% non-fat milk in 62.5 mM sodium phosphate buffer, pH 7.4, containing 100 mM NaCl, and 0.1% (v/v) Tween-20 (PBS-T) and then incubated for 2 h or overnight at 4 °C with the appropriate antibodies: anti-tubulin-3β 1 : 10 000, anti-NeuN 1 : 1000, anti β-actin 1 : 15 000, and anti-TSPO 1 : 10 000.[73] After washing with TBS-T, the membranes were incubated with IgG secondary antibody linked to horseradish peroxidase (anti-rabbit IgG 1 : 20 000, anti-mouse IgG 1 : 10 000, as appropriate, from Jackson Immunologicals, West Grove, PA, USA) in TBS-T at room temperature. Binding of antibodies to the membrane was detected with the EZ-ECL-detection reagent (Biological Industries), using the ImageQuant LAS 4010 apparatus and Totallab Quant quantitative image analysis of Totallab (Newcastle upon Tyne, England).

PC12 cells [2] = assay: Collapse of mitochondrial membrane potential (JC-1) in PC12 cells; format: cell-based, rat; settings: PC12, 50 μM MGV-1, 35 mM glutamate
From the text: JC-1 was used to assay changes in Δψm, as described previously.[71],[79] Owing to charges distributed along JC-1 molecules, they pass unimpaired (charged) mitochondrial membranes and enter the mitochondrial matrix. There the J-molecules form J-aggregates, which emit at 590 nm (orange–red fluorescence). […] The monomers emit at 527 nm (green fluorescence). A decrease in the red–green fluorescence intensity ratio is an indication for mitochondrial depolarization. As a positive control, the proton ionophore carbonyl cyanide m-chlorophenylhydrazone was used as described previously.[71] Cells were collected and prepared for suspension in 10 μg/ml of JC-1 solution in PBS. After incubation at 37 °C for 30 min in the dark, the cells were washed with 0.5 ml of PBS, and the cell suspensions were analyzed with the BD FACSCalibur flow cytometer.

U118MG cells [3] = assay: LDH cytotoxicity assay, glutamate-induced cell death of U118MG cells; settings: 35 mM glutamate
Description: (1) For U118MG cells, glutamate at a concentration of 35 mM was applied with or without MGV-1. As discussed, glutamate levels in normal healthy brain tissue can average 15 mM, and these levels can be doubled in diseased brain tissue, whereas in cell organelles glutamate levels can be as high as 250 mM (as discussed). […] In more detail, U118MG cells were seeded, 2×10^5 cells per well of 6-well plates and 6×10^3 cells per well of 96-well plates. Twenty-four hours after seeding, U118MG cells were pretreated with MGV-1 (or one of the other compounds) at various concentrations from 0.1 nM–100 μM. Twenty-four hours after the pretreatment, the cells were exposed to 35 mM of glutamate. […] The negative control was vehicle, that is, ethanol with a final concentration of 1%. […] The positive control was exposure to 35 mM of glutamate alone (with 200 μM of glycine).
Wells of 96-well plates were with 6000 cells per well and treated according the protocol presented above. We used the Cytotoxicity Detection Kit (LDH) (Roche Pharmacuticals) according to the manufacturer’s instructions. When cell plasma membranes are damaged, the cytoplasmic enzyme LDH is released into the medium. The amount of formazan formed is proportional to the amount of LDH released.[77] The resulting color intensity is proportional to the number of damaged cells. Absorbance at 492 nm with reference at 690 nm was measured with the Spectrophotometer Zenyth 200 (Anthos) and the results were calculated and normalized according to the formula presented by the manufacturer.

PC12 cells [4] = assay: Neuronal differentiation of PC12 cells, strain not specified; format: cell-based, rat; settings: agent by itself; MGV-1 50 μM
Description: For our newly developed differentiation method by MGV-1 in combination with glutamate, PC12 cells were plated onto poly-L-lysine coated culture plates and Petri dishes at a relatively low density (5.2×10^3 cells/cm^2 for six-well plates and 3.6×10^3 cells/cm^2 for Petri dishes), in DMEM medium containing 8% heat-inactivated FBS and 8% horse serum. […] Exposure to vehicle alone (culture medium with 1% of ethanol) was used as the control.
The major and determining indication of neural differentiation of PC12 cells is neurite development.[23],[80] […] The number of differentiated cells was determined by visual examination of the captured fields. In particular, a line was drafted at half height of the image and the cell bodies crossed by the line were further analyzed regarding differentiation. […] Cells with at least one identifiable neurite with a length at least equal to the cell body diameter were scored, and their number expressed as a percentage of the total number of cells crossed by said line. In addition, for each of these cells, the length of the longest neurite was determined (using AxioVision Image software, Zeiss). […]

U118MG cells [5] = assay: Mitochondrial ROS / cardiolipin oxidation (NAO) assay in U118MG cells exposed to glutamate; format: cell-based, human; settings: 25 μM compound, 35 mM glutamate
From the text: Cardiolipin is present in the inner mitochondrial membrane, at the contact sites with the outer mitochondrial membrane. By application of NAO, we assayed cardiolipin peroxidation as an indication of mitochondrial ROS generation, as described previously.[71] NAO binds with high affinity to non-oxidized cardiolipin in a 2 : 1 ratio, but with less affinity to oxidized cardiolipin, the latter which is reflected by lower levels of green NAO fluorescence.[78] For our study, cells were collected and centrifuged at 1200×g for 5 min, 4 °C. Cell pellets were re-suspended in 0.5 ml of 0.1 μM NAO and incubated for 30 min at 37 °C in the dark. Then, the cells were washed once with 0.5 ml PBS and transferred into 5 ml FALCON FACS tubes and analyzed with the aid of a BD FACSCalibur flow cytometer using CellQuest software (BD Biosciences, Franklin Lakes, NJ, USA).

PC12 cells [6] = assay: Cell death of PC12 cells, glutamate with or without MGV-1 (LDH); format: cell-based, rat
Description: (2) For PC12 cells (as for U118MG cells), dose-response assays of the lethal effects of glutamate on PC12 cells established 35 mM as an optimal concentration for glutamate for induction of LDH activity in the medium in the range of 20–40% as compared with the effect of the positive control, 1% Triton X-100, the latter which is defined as causing 100% of LDH release in the medium.

SMILES: CN(C)C(=O)Oc1nc(-c2ccccc2)nc2ccccc12 [MGV-1, 2-phenylquinazolin-4-yl dimethylcarbamate]
- Increase of NeuN expression (western blot) [1]: do not enhance NeuN expression significantly
- Enhancement of the incidence of collapse of the ΔΨm (PC12 cells [2]): threefold
- Protection against glutamate-induced cell death (LDH) (U118MG cells [3]; compound 10-100 μM, 24 h pretreatment): protect against lethal effects of glutamate; also recorded: prevented cell death induction
- Most effective concentration for protection against cell death (U118MG cells [3]; tested 0.1 nM-100 μM): 25 µM and 50 µM
- Neuronal differentiation of PC12 cells (neurite outgrowth) (PC12 cells [4]): very effective in inducing extensive neuronal differentiation; also recorded: more effective than NGF and glutamate by themselves
- Prevention of cardiolipin oxidation / mitochondrial ROS generation induced by glutamate (NAO) (U118MG cells [5]): prevent cardiolipin oxidation
- Cell death of PC12 cells by the compound by itself (PC12 cells [6]; 100 μM, no glutamate): can induce cell death
- Enhancement of cell death induction by glutamate (PC12 cells [6]; PC12, 50 μM MGV-1, 35 mM glutamate): threefold
- Optimal concentration as enhancer of cell death induced by glutamate (PC12 cells [6]; PC12, 35 mM glutamate, tested 0.1 nM-100 μM): 50 µM
